# Experimental data as given in patent US11932599B2, “Ferroptosis inducing compound, compositions comprising the same, and methods of inducing ferroptosis” (UNIVERSITY OF MASSACHUSETTS, priority 2021, dated 2024).
# What was measured:
# HT-1080 cells [1] = experiment: Cell viability assay (Alamar Blue), cytotoxicity in HT-1080 cells; type: cell-based, human; settings: Homo sapiens
# Protocol: (§1) Cell lines and media. In the following example, HT-1080 (Human fibrosarcoma harboring NrasQ61K) cells (obtained from ATCC) were grown in DMEM high-glucose media with 1% non-essential amino acids (Life Technologies) and 10% FBS. 143B cells were grown in DMEM high-glucose media with 1% glutamine and 10% FBS. Calu-1 cells were grown in McCoy's 5A media (Life Technologies) supplemented with 10% FBS. All the cell lines were grown at 37° C. under 5% CO2. Cell lines were not tested for mycoplasma. In addition, the panel of four lung cancer (NCI-H23; SK-Mes-1; Calu6 and A549) were purchased from ATCC. They were cultured according to the ATCC protocol of each cell line. The non-malignant breast epithelial cells (MCF10A) were maintained in DMEM/F12 medium supplemented with 5% horse serum, epidermal growth factor (20 ng/ml), insulin (10 μg/ml), hydrocortisone (0.5 mg/ml), cholera toxin (100 ng/ml), and penicillin/streptomycin.
# (§2) Cell viability assay. 9,000 cells per 100 μl were seeded in each well in 96-well plates. Lethal compounds were dissolved in DMSO. In the mother plates, DMSO stock of each compound was further diluted with media to create 20 μM or 10 μm as highest concentrations, respectively and a twofold, 9-point dilution series was prepared. Cells were seeded for 24 h and media were replaced by the mother plate drug-dilution media. When ferroptosis inhibitors (for example, 500 nM Ferrostatin-1, 100 μM α-tocopherol, 152 μM deferoxamine) were used in cotreatments with lethal inducers, they were supplemented to cell culture when the lethal compounds were added, and the cells were then incubated for 48 h. When other cell-death-modulating compounds (100 nM sodium selenite) were used in cotreatments, they were supplemented to cell culture for 24 h before lethal compounds were added to cell culture, after which cells were further incubated for 48 h at 37° C. under 5% CO2. On the day of the viability measurement, we added 25 μl per well of 50% Alamar Blue diluted in media (Life Technologies) and further incubated the cells at 37° C. for 6 h. Fluorescence intensity (excitation/emission: 540/590) was measured with a Victor 3 plate reader (PerkinElmer), and the normalized viability was calculated as VL=(IL−I0)/(IV−I0), where VL is the normalized viability, I0 is the raw fluorescence intensities from the wells containing media, IV is the cells treated with a vehicle (negative control), and IL is the cells with the lethal compound (L), respectively. The viability was typically measured in at least biological duplicate. A representative dose-response curve, the mean and standard error of normalized viability from one replicate were plotted.
# Statistical analysis and data visualization. Dose-response curve plotting and EC50 computation were performed with Prism 6.0c (GraphPad Software).
# Various compounds were selected for analysis of their cytotoxicity in HT-1080 cells according to the procedure described above.
# HT-1080 cells [2] = experiment: Cell viability assay in HT-1080 cells, cotreatment with cell-death inhibitors; type: cell-based, human; settings: HT-1080, 48 h; for EC50: Homo sapiens, read-out: EC50 (μM) of TKD1079 + inhbitor
# HT-1080 cells [3] = experiment: Analysis of ROS generation: lipid ROS by C11-BODIPY flow cytometry; type: cell-based, human; settings: C11-BODIPY (2 μM), 4 hours
# Protocol: Analysis of ROS Generation. 200,000 HT-1080 cells were seeded in six-well plates at 37° C. for 17 h. Cells were treated with TKD1079 compound, trypsinized, pelleted, and washed once with PBS. For lipophilic or aqueous ROS detection, cells were re-suspended in Hanks' Balanced Salt Solution (HBSS; Life Technologies) containing test compounds as well as C11-BODIPY(581/591) (2 μM) (Life Technologies), and incubated for 10 min at 37° C. Cells were then pelleted, re-suspended in 250 μL HBSS in a BD Falcon tube, and analyzed using a BD Accuri C6 flow cytometer (BD Biosciences). Both dyes were measured in the FL1 channel.
# NCI-H23 cells = experiment: Cell viability assay, cytotoxicity in NCI-H23 cells; type: cell-based; settings: 48 hours
# Protocol: as §1
# Cell viability assay. 9,000 cells per 100 μl were seeded in each well in 96-well plates. Lethal compounds were dissolved in DMSO. In the mother plates, DMSO stock of each compound was further diluted with media to create 20 μM or 10 μm as highest concentrations, respectively and a twofold, 9-point dilution series was prepared. […] Fluorescence intensity (excitation/emission: 540/590) was measured with a Victor 3 plate reader (PerkinElmer), and the normalized viability was calculated as VL=(IL−I0)/(IV−I0), where VL is the normalized viability, I0 is the raw fluorescence intensities from the wells containing media, IV is the cells treated with a vehicle (negative control), and IL is the cells with the lethal compound (L), respectively. The viability was typically measured in at least biological duplicate. […]
# In addition, the compound TKD1079 was also analyzed for cytotoxicity in four different lung cancer cell lines according to the procedure described above. […] Cytotoxicity was also determined against MCF10A non-malignant breast epithelial cell, NCI-H1299 human non-small cell lung carcinoma cell line, and Beas-2B epithelial cells isolated from normal human bronchial epithelium.
# Beas-2B epithelial cells = experiment: Cell viability assay, cytotoxicity in Beas-2B cells; type: cell-based; settings: 48 hours
# Protocol: as §2, with “When other cell-death-modulating compounds (100 nM sodium selenite) were used in cotreatments, they were supplemented to cell culture for 24 h before lethal compounds were added to cell culture, after which cells were further incubated for 48 h at 37° C. under 5% CO2. On the day of the viability measurement, we added 25 μl per well of 50% Alamar Blue diluted in media (Life Technologies) and further incubated the cells at 37° C. for 6 h.” left out, “A representative dose-response curve, the mean and standard error of normalized viability from one replicate were plotted.” left out
# (§3) In addition, the compound TKD1079 was also analyzed for cytotoxicity in four different lung cancer cell lines according to the procedure described above. […]
# [4] = tested on: MCF10A non-malignant breast epithelial cell; experiment: Cell viability assay, cytotoxicity in MCF10A cells; type: cell-based; settings: 48 hours
# Protocol: as §1, with “The non-malignant breast epithelial cells (MCF10A) were maintained in DMEM/F12 medium supplemented with 5% horse serum, epidermal growth factor (20 ng/ml), insulin (10 μg/ml), hydrocortisone (0.5 mg/ml), cholera toxin (100 ng/ml), and penicillin/streptomycin.” left out
# (§4) Cell viability assay. […] Fluorescence intensity (excitation/emission: 540/590) was measured with a Victor 3 plate reader (PerkinElmer), and the normalized viability was calculated as VL=(IL−I0)/(IV−I0), where VL is the normalized viability, I0 is the raw fluorescence intensities from the wells containing media, IV is the cells treated with a vehicle (negative control), and IL is the cells with the lethal compound (L), respectively. The viability was typically measured in at least biological duplicate. […]
# as §3
# [5] = tested on: four lung cancer cell lines (NCI-H23, Calu6, A549, SK-Mes-1); experiment: Cell viability of four lung cancer cell lines cotreated with ferrostatin-1; type: cell-based; settings: ferrostatin-1 500 nM, 48 h
# Protocol: as §1, with “The non-malignant breast epithelial cells (MCF10A) were maintained in DMEM/F12 medium supplemented with 5% horse serum, epidermal growth factor (20 ng/ml), insulin (10 μg/ml), hydrocortisone (0.5 mg/ml), cholera toxin (100 ng/ml), and penicillin/streptomycin.” left out
# as §4
structure (smiles),measurement,setting,value
"O=S(=O)(NC1CC2CCC1C2)c1ccc2c(c1)C(=NO)c1cc(S(=O)(=O)NC3CC4CCC3C4)ccc1-2 (stereo not shown) [TKD1079, N^2,N^7-di(bicyclo[2.2.1]heptan-2-yl)-9-(hydroxyimino)-9H-fluorene-2,7-disulfonamide]",EC50,"HT-1080 cells [1]; HT-1080, 48 h, HT-1080 cells, 48 hours, no inhibitor, read-out: EC50 (μM) of TKD1079",0.0797 µM
same,EC50,"HT-1080 cells [1]; HT-1080, HT-1080 cells, compound alone, read-out: EC 50",0.079 µM
same,Slectivity in fold [EC50 (TKD1079 + inhibitor)/ EC50 inhbitor],HT-1080 cells [2]; DFOM (152 μM),34.2 fold
same,Slectivity in fold [EC50 (TDK1079 + inhibitor)/ EC50 inhbitor],HT-1080 cells [2]; Ebselen (5 μM),5.8 fold
same,Slectivity in fold [EC50 (TKD1079 + inhibitor)/ EC50 inhbitor],HT-1080 cells [2]; Fer 1 (500 nM),68.8 fold
same,Slectivity in fold [EC50 (TDK1079 + inhibitor)/ EC50 inhbitor],HT-1080 cells [2]; Selenite (100 nM),9.5 fold
same,Slectivity in fold [EC50 (TDK1079 + inhibitor)/ EC50 inhbitor],HT-1080 cells [2]; TOFA (10 μM),148.7 fold
same,Slectivity in fold [EC50 (TDK1079 + inhibitor)/ EC50 inhbitor],HT-1080 cells [2]; Trolox (100 μM),11.6 fold
same,Slectivity in fold [EC50 (TKD1079 + inhibitor)/ EC50 inhbitor],HT-1080 cells [2]; ZVAD 45 μM,0.6 fold
same,blocking of the compound's lethality by the apoptosis inhibitor pathway (ZVAD),HT-1080 cells [2]; ZVAD 45 μM,did not block
same,Slectivity in fold [EC50 (TKD1079 + inhibitor)/ EC50 inhbitor],HT-1080 cells [2]; aToc (100 μM),13.5 fold
same,EC50,HT-1080 cells [2]; cotreated with DFOM (152 μM),2.73 µM
same,EC50,HT-1080 cells [2]; cotreated with Ebselen (5 μM),0.459 µM
same,EC50,HT-1080 cells [2]; cotreated with Fer 1 (500 nM),5.48 µM
same,EC50,HT-1080 cells [2]; cotreated with Selenite (100 nM),0.758 µM
same,EC50,HT-1080 cells [2]; cotreated with TOFA (10 μM),11.8 µM
same,EC50,HT-1080 cells [2]; cotreated with Trolox (100 μM),0.924 µM
same,EC50,HT-1080 cells [2]; cotreated with ZVAD (45 μM),0.051 µM
same,EC50,HT-1080 cells [2]; cotreated with aToc (100 μM),1.08 µM
same,lipid ROS generation during cell death,HT-1080 cells [3],increased
same,ferroptosis induction in NCI-H23 using ferroptosis inhibitors,"NCI-H23 cells; NCI-H23, DFOM (152 μM) and Fer-1 (0.5 μM)",induces ferroptosis
same,cytotoxicity (cell viability) in NCI-H23 cells,NCI-H23 cells; NCI-H23 cells,highly potent
same,cytotoxicity in normal human lung Beas-2B cells,Beas-2B epithelial cells,without harming
same,cytotoxicity in breast MCF10A cells,[4],without harming
same,cytotoxicity in the presence of Fer-1,[5],blocked
